“Also recorded” adds a separate entry of the source.
Key:
[1] = tested on: ET-induced footpad edema; test: Mouse footpad edema assay: ET injected into the footpad after systemic drug pre-treatment; type: in vivo, BALB/cJ mice; settings: for Inhibition of ET-induced footpad swelling (edema): i.p. pre-treatment 2-3 h before ET 0.15 pg/20 pl, ESI-09, AG1024, H89 10 mg/kg, SecinH3 250 ul of 2.5 mM, also 2 h post toxin, edema at 8-10 h or 18-24 h
Text: To verify these conclusions in vivo, a footpad swelling assay was turned to in which intra-dermal injection of ET results in robust quantifiable edema. […] The question of which branch(es) of the cAMP pathway contributed to EF-mediated edema was examined by comparing the relative abilities of H89 and ESI-09 to block ET-induced footpad swelling. […] It was concluded that the Epac/Rap1 pathway is the primary mediator of EF-induced edema. In addition, the effect of AG1024 [47], an inhibitor of insulin-like growth factor receptor (IGF-1R), was tested. […] These findings, together with the results described above provide a framework for how effector pathways contribute to cAMP-mediated disruption of Rab11-dependent membrane trafficking (See FIG. 6 for summary diagram).
BALB/cJ mice (8-10 weeks old, female; Jackson Laboratories, Bar Harbor, Me.) were intraperitoneally injected with drugs. SecinH3 (TOCRIS #2849), AG1024 (Selleckchem, S1234), ESI-09 (TOCRIS #4773) or H89 (TOCRIS #2910), or with vehicle (70% DMSO in isotonic glucose for SecinH3, 30% DMSO in isotonic glucose for other drugs) 2-3 h prior to injection of ET (0.15 pg/20 pl, right footpad) or PBS (20 pl, left footpad), and in the case of SecinH3, also 2 h post toxin injection. ESI-09, AG1024 and H89 were administered at 10 mg/kg and SecinH3 was administered as 250 ul and 2.5 mM solution. Edema was assessed at 8-10 h, or 18-24 h by dorsal/plantar measurements using digital calipers.

[2] = tested on: HBMECs; test: ET (EF+PA) intoxication of HBMEC cultures with drug co-treatment; anti-pan-cadherin stain of adherens junctions, Sec15-GFP punctae; type: cell-based, human; settings: EF and PA 0.2 pg/ml-0.4 pg/ml, co-treatment 24 hrs, Slit2 10 pg/ml, ESI-09 100 pM, H89 10 pM
Experimental: The relative contributions of the Arf6, Epac, and PKA pathways to EF-induced inhibition of Rab11 was next examined, making use of HBMEC cultures. […] To inhibit the Arf6 pathway, cells were treated with Slit2, a secreted peptide that activates the Robo4 receptor to promote vascular stability via stimulation of the ArfGAP GIT [27]. […] Next, to determine the relative contribution of each branch of the cAMP pathway, EF-intoxicated cells were co-treated with ESI-09, an inhibitor specific for Epac, or with H89, a well-characterized inhibitor of PKA[45]. […] It was concluded that Epac/Rap1 is the predominant pathway mediating the cAMP induced effects of ET on exocyst-dependent junctional traffic in this setting.
HBMEC cultures were maintained in DMEM (Corning; Manassas, Va.) containing 10% FBS, 1% Penicillin/streptomycin, 2 mM L-glutamine and were incubated in 37° C., 5% CO2 atmosphere. Cells were gently dislodged with 0.05% trypsin (Mediatech Inc.) and cultured on glass poly-D-lysine coated chamber slides (BD Falcon #354108). At about 80% confluence, EF and PA (0.2 pg/ml-0.4 pg/ml) were added to cells. […] After 24 hrs (FIGS. 5A-5H), cells were fixed for 10 mins at −20° C. in 100% Methanol, then washed with 0.1% Triton in PBS, Sec15GFP fluorescence was inspected directly, while Methanol-fixed cells were stained with a mouse anti pan-Cadherin antibody (Abcam, clone CH-19, 1/100). […]

SMILES | Inhibition of ET-induced footpad swelling (edema) [1] | Reversal of ET footpad swelling at both early (8 h) and late (18 h) times ([1]; injected systemically in mice, 8 h and 18 h) | Rescue of junctional pan-cadherin accumulation / adherens junctions (AJs) compromised by EF/ET [2] | ET-induced edema in animals in which systemic pre-treatment induced observable symptoms of malaise ([1]; SecinH3-pretreated mice showing malaise) | Tolerability of systemic pre-treatment with the drug ([1]; SecinH3 i.p., 250 ul of 2.5 mM solution, some animals)
CC(C)(C)c1cc(C=C(C#N)C#N)cc(Br)c1O [AG1024] | significant reduction of edema; also recorded: can be suppressed; also recorded: Strong, although less persistent, suppression of footpad swelling |  |  |  | 
CC(C)(C)c1cc(C(=O)/C(C#N)=N/Nc2cccc(Cl)c2)no1 [ESI-09] | absolute inhibition of edema; also recorded: strong inhibition of footpad swelling; also recorded: can be suppressed | can reverse the footpad swelling | partially restore normal junctional traffic and visible AJs; also recorded: partially rescues pan-cadherin expression at AJs; also recorded: partially restore junctional barrier integrity |  | 
O=S(=O)(NCCNC/C=C/c1ccc(Br)cc1)c1cccc2cnccc12 [H89] | little or no effect |  | no detectable rescue; also recorded: does not appreciably rescue junctional cadherin expression |  | 
COc1nc(-c2ccc3c(c2)OCO3)n(-c2ccc(NC(=O)CSc3ccccc3)cc2)n1 [SecinH3] | strongly inhibited; also recorded: blocked EF-induced edema; also recorded: can be suppressed |  |  | virtually abolished | observable symptoms of malaise

— patent US11083708B2, “Pharmacological restoration of epithelial or endothelial barrier integrity by agents blocking EPAC/RAP1 signaling” (The Regents of the University of California, priority 2018, dated 2021)
